Tested on: primary human dendritic cells
Assay: AAV-EGFP transduction of primary human dendritic cells with NF-κB modulators (flow cytometry)
Type: cell-based
Details: scAAV-transduced DCs treated with cytokines; Bay11 row: cytokines plus Bay11
Description: Recombinant AAV Vector Transduction Assays in Vitro. Optimal concentration of NF-κB-modulating compounds was determined by a cell viability assay with tenfold-dilutions from the IC50 or were used as described previously (Wu and Miyamoto, 2008; Kumar et al., 2008). VP16 or Bay11 (10 or 5 μM, final concentration), and PDTC (50 or 25 μM final concentration) were used either alone or in activator/inhibitor combinations. For transduction experiments, approximately 1×10^5 HeLa cells were either pre-treated with these compounds 24 hrs prior to vector infection. Cells were transduced with 500 or 2,000 vector genomes (vgs) per cell of recombinant WT-AAV or TM-AAV vectors encoding the EGFP transgene as described previously (Markusic et al., 2010). After 7 days of culture, primary human dendritic cells were transduced with AAV vectors at 2000 vgs/cell and incubated for 48 hrs. Transgene expression was assessed as total area of green fluorescence (pixel^2) per visual field (mean±SD), or by flow cytometry. Analysis of variance (ANOVA) was used to compare between test results and the control and they were determined to be statistically significant.
Cells, Antibodies and Chemicals. […]

Compound: Cc1ccc(S(=O)(=O)/C=C/C#N)cc1 [Bay11, Bay11-7082]
- transgene expression in DCs: ~12%
